{"source": "patent US12311049B2", "about": "“Formulation of ear drops and methods for delivery thereof for treating upper respiratory infections” (priority 2023, dated 2025)", "format_in_all_cases": "cell-based", "key": {"[1]": {"system": "SARS-CoV-2 XBB1.5"}, "[2]": {"system": "SARS-CoV-2 XBB"}, "[3]": {"system": "SARS-CoV-2 BA.5"}, "[4]": {"system": "SARS-CoV-2 BA.2"}, "[5]": {"system": "original WA1 viral strain of SARS-CoV-2", "experiment": "in vitro infectivity of SARS-CoV-2 to epithelial cells expressing ACE-2 and TMPRSS-2 (virus-NP protein in culture media)", "settings": "MOI 0.01"}, "[6]": {"system": "SARS-CoV-2 BA.1"}}}
{"substance": "hemin", "values": [{"measurement": "suppression of replication of SARS-CoV-2 XBB1.5", "setting": "[1]", "value": "significantly suppressed replication"}, {"measurement": "suppression of replication of SARS-CoV-2 XBB", "setting": "[2]", "value": "significantly suppressed replication"}, {"measurement": "suppression of replication of SARS-CoV-2 BA.5", "setting": "[3]", "value": "significantly suppressed replication"}, {"measurement": "suppression of replication of SARS-CoV-2 BA.2", "setting": "[4]", "value": "significantly suppressed replication"}, {"measurement": "suppression of SARS-CoV-2 infection, original WA1 viral strain", "setting": "[5]", "value": "markedly suppressed"}, {"measurement": "dose response of inhibition of SARS-CoV-2 BA.1 (virus-NP protein levels)", "setting": "[6]", "value": "dose-dependent inhibition"}, {"measurement": "protection of cells against SARS-CoV-2 BA.1 infection", "setting": "[6]", "value": "protected cells"}]}
